# Assay results taken from patent publication EP0438856A2, “Use of melatonin to protect the skin against the influence of UV-rays” (SHISEIDO COMPANY LIMITED, priority 1989, dated 1991).
# Key:
# hairless mice = assay type: in vivo, albino hairless mice
# Protocol: Male albino hairless mice 8 weeks old (strain derived from Skh-HR-1, weight 25 - 35 g) were used, and one group consisted of 12 to 14 mice.
# Melatonin (SIGMA Co.) was used as a suspension in 20% ethanol containing physiological saline, and administered by an intraperitoneal injection of 0.1 ml in doses at 3 levels of 0 mg, 1 mg, and 10 mg per day.
# A Toshiba FL20-SE was mounted in a cage for irradiation, and irradiation was carried out at an irradiation intensity of 0.94 mW/cm², for 8 minutes per day, three times per week on alternate days for weeks. The irradiation was carried out 57 times, and the total irradiation dose was 25.7 J/cm². The administration of the sample was commenced simultaneously with the UV rays irradiation, and after the completion of the UV rays irradiation, the sample was administered continuously for an additional 10 weeks.
# The size of the tumor generated was measured with slide calipers.
# A t-examination was practiced for the number of tumors with sizes of 5 mm or more per one individual, and the number of tumors generated with sizes of 5 mm or more is shown in Fig. 2.
# [1] = tested on: Fibroblasts derived from a human being; assay: Effect on cell damage caused by UV-rays irradiation (colony formation); assay type: cell-based; conditions: 100 mM melatonin in phosphate buffer, vs system without melatonin, p < 0.01, Fig. 1
# Protocol: Fibroblasts derived from a human being were seeded in a laboratory dish having a diameter of 6 cm, at 400 cells/laboratory dish, and were cultured in Eagle's MEM medium containing 10% fetal calf serum in an incubator at 5% CO₂ , at 37°C for 24 hours. After the medium was exchanged with a phosphate buffer containing 100 mM of melatonin (SIGMA Co.), it was irradiated by UVB (Toshiba FL-SE 20W) at 50 mJ/cm² or 100 mJ/cm², followed by a further culturing for 6 days. The culture was fixed with a 10% neutral formalin, stained with a 30-fold Gimza solution, and the colonies per laboratory dish were counted. The colonies of the irradiated group were divided by the colonies of the non-irradiated group, to measure the colony formation ratio. As a Control, a phosphate buffer containing no melatonin was added. In Fig. 1, (a) is the system containing no melatonin and (b) is the system containing 100 mM of melatonin. […] The risk ratio p becomes statistically significant at p < 0.05. Accordingly, it can be seen that melatonin has a protective effect against cell damage caused by UV-rays irradiation.
# tumors = conditions: cited from earlier work
structure (smiles),measurement,setting,value
"COc1ccc2[nH]cc(CCNC(C)=O)c2c1 [melatonin, N-acetyl-5-methoxytryptamine]",protective effect against skin cancer,"hairless mice; group administered with 10 mg of melatonin per day, intraperitoneal",a protective effect against skin cancer was seen
same,generation and proliferation of tumors (number of tumors generated with sizes of 5 mm or more per one mouse),"hairless mice; melatonin administered group (1 mg or 10 mg per day, intraperitoneal), UV irradiated, p < 0.05 on 23 days and 26 days and thereafter, Fig. 2",significantly suppressed
same,colony formation ratio,[1]; UVB 50 mJ/cm²,significantly higher colony formation ratio
same,colony formation ratio,[1]; UVB 100 mJ/cm²,significantly higher colony formation ratio
same,proliferation of tumors,"tumors; experimental leukemia, sarcoma, mammary tumors (literature reports)",suppressing of a proliferation of tumors
same,course of tumors,"tumors; mammary tumors (Hamilton, 1969) or lung cancer (Lapin and Ebels, 1976)",tumors were worsened
